US5602156A, “Method for inhibiting metalloproteinase expression” (The United States of America as represented by the …, priority 1994, dated 1997)

Experiments:
[1] = system: MMP-2; assay: Gelatin zymography of conditioned media from human cancer cell lines (gelatinase activity); assay type: cell-based; conditions: for reduction of activated MMP-2: 20 μM compound 1
Experimental: (§1) Conditioned media for zymogram and Western blot analysis were produced under serum-free conditions. Cells (2 million) were plated in 25 cm^2 flasks in serum-containing medium and cultured overnight. Serum-containingmedium was removed and the cell monolayers were washed twice with DMEM/ITS (DMEM containing insulin (5 μg/mL), transferrin (5 μg/mL), and selenium (5 ng/mL)). The resultant cells were fed with 3 mL of DMEM/ITS and additives as described in the Examples for two 24 hour periods. Conditioned media samples were collected at 24 hours and cells were refed with fresh DMEM/ITS containing the described additives for an additional 24 hours. Conditioned media samples were centrifuged to remove cells and debris then frozen at -20° C. until use. Freeze and thaw cycles of the conditioned media were limited to no more than two.
Quantitation of the effect was evaluated by laser densitometry of the resultant zymograms.
Aliquots of conditioned medium (15 μL) were electrophoresed on gelatin-containing 10% PAGE gels under nonreducing but denaturing conditions. These conditions allow the different gelatin-degrading species (MMPs) to separate by size. […] Bands of clearing, seen after Coomassie blue staining correspond to areas of gelatinase activity.
OVCAR3 conditioned media samples were concentrated 10-fold prior to zymography.
Known concentrated conditioned medium from HT1080 cells was used for identification of the gelatinase species as marked in FIG. 1A: 92 kDa, gelatinase B/MMP-9; 72 kDa, gelatinase A/MMP-2 latent form; 65 kDa intermediate and 62 kDa activated forms of MMP-2. The activated form of MMP-2 results from cleavage of the amino terminal domain.
Lane 1 corresponds to cells treated only with 0.05% DMSO as a control.
Quantitation of the zymograms in FIGS. 1A-1C were carded out using laser densitometry.
The effect of structural analogs on the gelatinase activity of A2058 cells was similarly evaluated.

[2] = system: MMP-2; assay: Gelatin zymography of A2058 cells, compound 1 with or without TGF-β1 (densitometry); assay type: cell-based, human; conditions: control band = 100%
Experimental: as §1
(§2) A2058 human melanoma cells, human HT1080 fibrosarcoma cells, and OVCAR3 human ovarian cancer cells were incubated with increasing concentrations of compound 1 (0.2-20 μM) or DMSO control (0.05%) and subjected to gelatin zymography. Aliquots of conditioned medium (15 μL) were electrophoresed on gelatin-containing 10% PAGE gels under nonreducing but denaturing conditions. These conditions allow the different gelatin-degrading species (MMPs) to separate by size. The enzymes renature after removal of the SDS by incubation of the gel with 2.5 % Triton X-100, and degrade the gelatin substrate present in the polyacrylamide gel upon overnight incubation in low salt collagenase buffer. Bands of clearing, seen after Coomassie blue staining correspond to areas of gelatinase activity.
(§3) A2058 and HT1080 cells were incubated with compound 1 (2 μM), with or without TGF-β1 (5 ng/mL) for 24 and 48 hours prior to harvest of conditioned media. Aliquots were subjected to gelatin zymography as described in Example 1. Known concentrated conditioned medium from HT1080 cells was used for identification of the gelatinase species (92 kDa, gelatinase B/MMP-9; 72 kDa, gelatinase A/MMP-2 latent form; 65 kDa intermediate and 62 kDa activated forms of MMP-2).
(§4) Lane 1 is the control resulting from treatment of the cells with 0.1% DMSO. Lanes 2 and 3 correspond to those cells which are treated with 2 μM compound 1 in the absence of TGF-β1 for 24 and 48 hours, respectively. Lane 4 corresponds to cells which have been treated with TGF-β1 in the absence of compound 1. Lane 5 corresponds to cells which have been treated with TGF-β1 for 48 hours with compound 1 being added to the incubation mixture for the final 24 hours. Lane 6 corresponds to cells which have been treated for 48 hours with both TGF-β1 and compound 1.
(§5) *The control band was defined as 100% gelatinase activity and the other
(§6) bands were normalized to it. Numbers reflect triplicate measurements from
(§7) each zymogram band of representative zymograms. Standard deviations, not

[3] = system: MMP-2; assay: Gelatin zymography of HT1080 cells, compound 1 with or without TGF-β1 (densitometry); assay type: cell-based, human; conditions: control band = 100%
Experimental: as §1, §2, §3, §4, §5, §6, §7

[4] = system: MMP-9; assay: Gelatin zymography of HT1080 cells, compound 1 with or without TGF-β1 (densitometry), 92 kDa; assay type: cell-based, human; conditions: control band = 100%
Experimental: as §1, §2, §3, §4, §5, §6, §7

[5] = system: MMP-2; assay: Northern blot of MMP-2 mRNA from A2058 cells; assay type: cell-based, human; conditions: 2 μM; for inhibition in MMP-2 transcription: corrected for loading (GAPDH)
Experimental: This example illustrates the effect of compound 1 on MMP-1 and MMP-2 mRNA from A2058 cells using Northern blot analysis.
Total cytoplasmic RNA was purified from A2058 cells using cesium chloride density centrifugation. Cells were treated with DMSO vehicle (0.05 %) or compound 1 (2 μM) for 24 or 48 hr. Total RNA yields from treated and control cells (μg/10^6 cells) were similar. Aliquots (5 μg) of total RNA were denatured and separated on formaldehyde-1% agarose slab gels, passively transferred to GeneScreen, and crosslinked using ultraviolet light exposure. RNA was hybridized in buffer (50% deionized formamide, 5x SSC, 10 mM Tris HCl pH 7.5, 1x Denharts solution without albumin, 1.0% SDS, and 0.125 mg/mL salmon sperm DNA) containing 10^6 counts/mL of ^32 P- labeled probe of either MMP-2, MMP-1, or with GAPDH which was used as a measure of RNA load. Probes were labeled to high specific activity with ^32 P-dCTP using a random primer labeling protocol. The cDNA probes for the MMP-2, MMP-1, and GAPDH have been described. See, Brown, et al., Cancer Res. 50:6184-6191 (1990); Templeton, et at., Cancer Res. 50:5431-5437 (1990); and Fort, et al., Nucleic Acids Res. 13:1431-1441 (1985). Radiolabeled bands were quantitated using laser densitometric analysis of autoradiography bands. Numeric data are presented as percent inhibition of IVase or interstitial collagenase expression corrected for loading using GAPDH.

[6] = with TGF-β1, 2 μM compound 1, 24 hr
[7] = with TGF-β1, 2 μM compound 1, 48 hr
[8] = without TGF-β1, 2 μM compound 1, 24 hr
[9] = without TGF-β1, 2 μM compound 1, 48 hr
[10] = with TGF-β, 2 μM compound 1, 24 hr
[11] = with TGF-β, 2 μM compound 1, 48 hr
[12] = without TGF-β, 2 μM compound 1, 24 hr
[13] = without TGF-β, 2 μM compound 1, 48 hr

SMILES: NC(=O)c1nnn(Cc2cc(Cl)c(C(=O)c3ccc(Cl)cc3)c(Cl)c2)c1N [Compound 1, 5-amino-l-(4-(4-chlorobenzoyl)-3,5-dichlorobenzyl)-1,2,3-triazole-4-carboxamide]
- MMP-2 activity ([1]; A2058, 10 μM (FIG. 1E)): reduced MMP-2 activity
- reduction of activated MMP-2 ([1]; A2058): almost complete reduction
- reduction of activated MMP-2 ([1]; HT1080): 75%
- shift of MMP species ([1]; HT1080 cell line): shift to activated species with subsequent decrease in total activity
- reduction of activated MMP-2 ([1]; OVCAR3): almost complete reduction
- reduction in activity of all MMP-2 species ([1]; all cell lines (HT1080, A2058, OVCAR3), normalized to DMSO control): greater than 80%
- reduction of MMP activity ([1]; three human cancer cell lines, 0.2-20 μM): dose dependent reduction of MMP activity
- inhibition of MMP-2 gelatinase activity (FIG. 1) ([1]; zymograms of FIG. 1): dose-dependent inhibition
- gelatinase activity, 65 + 62 kDa [2, 6]: 0%
- gelatinase activity, 72 kDa [2, 6]: 44%
- gelatinase activity, 65 + 62 kDa [2, 7]: 0%
- gelatinase activity, 72 kDa [2, 7]: 36%
- gelatinase activity, 65 + 62 kDa [2, 8]: 14%
- gelatinase activity, 72 kDa [2, 8]: 84%
- gelatinase activity, 65 + 62 kDa [2, 9]: 0%
- gelatinase activity, 72 kDa [2, 9]: 45%
- gelatinase activity, 65 + 62 kDa [3, 10]: 194%
- gelatinase activity, 72 kDa [3, 10]: 52%
- gelatinase activity, 65 + 62 kDa [3, 11]: 116%
- gelatinase activity, 72 kDa [3, 11]: 10%
- gelatinase activity, 65 + 62 kDa [3, 12]: 125%
- gelatinase activity, 72 kDa [3, 12]: 10%
- gelatinase activity, 65 + 62 kDa [3, 13]: 24%
- gelatinase activity, 72 kDa [3, 13]: 0.6%
- gelatinase activity, 92 kDa [4, 10]: 78%
- gelatinase activity, 92 kDa [4, 11]: 14%
- gelatinase activity, 92 kDa [4, 12]: 73%
- gelatinase activity, 92 kDa [4, 13]: 12%
- expression of type IV collagenase/gelatinase A MMP-2 [5]: inhibits the expression
- inhibition in MMP-2 transcription ([5]; 24 hr): greater than 50%
- inhibition in MMP-2 transcription ([5]; 48 hr): greater than 50%
